Source: patent US9056104B2, “Dynamic inhibitors of heat shock protein 90” (THE UNIVERSITY OF KANSAS, priority 2011, dated 2015)
Where two headings read alike, the source gives them in different places.

Experiments:
Format in all cases: cell-based
[1] = test system: SKBr3 (estrogen receptor negative, Her2 over-expressing breast cancer cells); assay: Anti-proliferative activity against SKBr3 cells; settings: for IC50: mean ± SD
Method: (§1) Once synthesized, the library of coumermycin A1 analogs containing the olefinic and saturated linkers, were evaluated for anti-proliferative activity against SKBr3 (estrogen receptor negative, Her2 over-expressing breast cancer cells), MCF-7 (estrogen receptor positive breast cancer cells), A549 (human lung adenocarcinoma epithelial), HT29 (Human colon adenocarcinoma grade II), and PC3mm2 (androgen receptor insensitive prostate cancer) cell lines. […] As shown, X is at the 6 position and Y is at the 8 position.

[2] = test system: MCF-7 (estrogen receptor positive breast cancer cells); assay: Anti-proliferative activity against MCF-7 cells; settings: mean ± SD
Method: as §1

[3] = test system: PC3mm2 (androgen receptor insensitive prostate cancer); assay: Anti-proliferative activity against PC3mm2 cells
Method: as §1, with “lines. The activities produced provide insight into the optimal distance between binding sites and provide rationale for subsequent analog design.” for “lines.”

[4] = test system: A549 (human lung adenocarcinoma epithelial); assay: Anti-proliferative activity against A549 cells
Method: as §1, with “lines. The activities produced provide insight into the optimal distance between binding sites and provide rationale for subsequent analog design.” for “lines.”

[5] = test system: HT29 (Human colon adenocarcinoma grade II); assay: Anti-proliferative activity against HT29 cells
Method: as §1, with “lines. The activities produced provide insight into the optimal distance between binding sites and provide rationale for subsequent analog design.” for “lines.”

[6] = test system: HSP90-dependent client proteins (Her-2, Raf, Akt); assay: Western blot analyses of HSP90 client protein degradation in MCF-7 breast cancer cells; settings: MCF-7 lysates, 24 hour treatment, 5x and 1/2 of antiproliferative IC50; actin control
Method: Since actin is not dependent on HSP90 for its maturation, actin levels should remain constant after treatment with an HSP90 inhibitor and is therefore used as a control. […] L represents a concentration ½ of the anti-proliferative IC50 value while H represents a concentration 5 times greater than the anti-proliferative IC50 value. GDA (500 nM) represents a positive control, while DMSO (0), vehicle, serves as the negative control. […]

[7] = test system: SKBr3, MCF-7, A549, HT29 and PC3mm2 cell lines; assay: Anti-proliferative activity, cell lines not specified; settings: versus Compounds 65-70
Method: as §1, with “lines. The activities produced provide insight into the optimal distance between binding sites and provide rationale for subsequent analog design.” for “lines.”

[8] = Table 1, at least two experiments in triplicate, read-out: Anti-Proliferation Activities of Noviosylated Olefin Dimers, SKBr3
[9] = Table 1, at least two experiments in triplicate, read-out: Anti-Proliferation Activities of Noviosylated Olefin Dimers, MCF-7
[10] = Table 2, read-out: Anti-Proliferation Activities of non-Noviosylated Olefin Dimers, SKBr3
[11] = Table 2, read-out: Anti-Proliferation Activities of non-Noviosylated Olefin Dimers, MCF7
[12] = Table 2, read-out: Anti-Proliferation Activities of non-Noviosylated Olefin Dimers, PC3mm2
[13] = Table 2, read-out: Anti-Proliferation Activities of non-Noviosylated Olefin Dimers, A549
[14] = Table 2, read-out: Anti-Proliferation Activities of non-Noviosylated Olefin Dimers, HT29
[15] = Table 3, read-out: Anti-Proliferation Activities of Saturated Linker Dimers, SKBr3
[16] = Table 3, read-out: Anti-Proliferation Activities of Saturated Linker Dimers, MCF-7
[17] = Table 3, read-out: Anti-Proliferation Activities of Saturated Linker Dimers, PC3mm2
[18] = Table 3, read-out: Anti-Proliferation Activities of Saturated Linker Dimers, A549
[19] = Table 3, read-out: Anti-Proliferation Activities of Saturated Linker Dimers, HT29
[20] = Table 4, read-out: Anti-Proliferation Activities of Biaryl Dimers, SKBr3
[21] = Table 4, read-out: Anti-Proliferation Activities of Biaryl Dimers, MCF-7

SMILES: COc1cc2cc(NC(=O)CC=CCC(=O)Nc3cc4cc(OC)c(OC5OC(C)(C)C(OC)C(O)C5O)c(C)c4oc3=O)c(=O)oc2c(C)c1OC1OC(C)(C)C(OC)C(O)C1O (stereo not drawn) [Compound 16]
- IC50 [1, 8]: > 100000 nM
- IC50 [2, 9]: > 100000 nM

SMILES: COc1c(OC2OC(C)(C)C(OC)C(O)C2O)ccc2cc(NC(=O)CC=CCC(=O)Nc3cc4ccc(OC5OC(C)(C)C(OC)C(O)C5O)c(OC)c4oc3=O)c(=O)oc12 (stereo not drawn) [Compound 17]
- IC50 [1, 8]: 52000 ± 7800 nM
- IC50 [2, 9]: > 100000 nM

SMILES: COc1cc2cc(NC(=O)CCC=CCCC(=O)Nc3cc4cc(OC)c(OC5OC(C)(C)C(OC)C(O)C5O)c(C)c4oc3=O)c(=O)oc2c(C)c1OC1OC(C)(C)C(OC)C(O)C1O (stereo not drawn) [Compound 18]
- IC50 [1, 8]: 106000 ± 13200 nM
- IC50 [2, 9]: 168000 ± 9700 nM

SMILES: COC1C(O)C(O)C(Oc2ccc3cc(NC(=O)CC=CCC(=O)Nc4cc5ccc(OC6OC(C)(C)C(OC)C(O)C6O)c(C)c5oc4=O)c(=O)oc3c2C)OC1(C)C (stereo not drawn) [Compound 20]
- IC50 [1, 8]: > 100000 nM
- IC50 [2, 9]: 53100 ± 7100 nM

SMILES: COC1C(O)C(O)C(Oc2ccc3cc(NC(=O)CCC=CCCC(=O)Nc4cc5ccc(OC6OC(C)(C)C(OC)C(O)C6O)c(C)c5oc4=O)c(=O)oc3c2C)OC1(C)C (stereo not drawn) [Compound 21]
- IC50 [1, 8]: 1500 ± 100 nM
- IC50 [2, 9]: 3900 ± 700 nM

SMILES: Cc1c(OC2CCN(C)CC2)ccc2cc(NC(=O)C/C=C/CC(=O)Nc3cc4ccc(OC5CCN(C)CC5)c(C)c4oc3=O)c(=O)oc12 [Compound 26]
- IC50 [1, 10]: 180 ± 30 nM
- IC50 [2, 11]: 290 ± 10 nM
- IC50 [3, 12]: 7510 nM
- IC50 [4, 13]: 8840 nM
- IC50 [5, 14]: 7100 nM

SMILES: COc1cc2cc(NC(=O)C/C=C/CC(=O)Nc3cc4cc(OC)c(OC5CCN(C)CC5)c(C)c4oc3=O)c(=O)oc2c(C)c1OC1CCN(C)CC1 [Compound 27]
- IC50 [1, 10]: 270 ± 10 nM
- IC50 [2, 11]: 560 ± 50 nM
- IC50 [3, 12]: 170 nM
- IC50 [4, 13]: 550 nM

SMILES: COc1c(OC2CCN(C)CC2)ccc2cc(NC(=O)C/C=C/CC(=O)Nc3cc4ccc(OC5CCN(C)CC5)c(OC)c4oc3=O)c(=O)oc12 [Compound 28]
- IC50 [1, 10]: 710 ± 40 nM
- IC50 [2, 11]: 1460 ± 200 nM
- IC50 [3, 12]: 8630 nM

SMILES: COc1cc2cc(NC(=O)CC/C=C/CCC(=O)Nc3cc4cc(OC)c(OC5CCN(C)CC5)c(C)c4oc3=O)c(=O)oc2c(C)c1OC1CCN(C)CC1 [Compound 30]
- IC50 [1, 10]: 1100 ± 130 nM
- IC50 [2, 11]: 1310 ± 100 nM
- IC50 [3, 12]: 4860 nM
- IC50 [4, 13]: 13400 nM

SMILES: COc1c(OC2CCN(C)CC2)ccc2cc(NC(=O)CC/C=C/CCC(=O)Nc3cc4ccc(OC5CCN(C)CC5)c(OC)c4oc3=O)c(=O)oc12 [Compound 31]
- IC50 [1, 10]: 2220 ± 500 nM
- IC50 [2, 11]: 1120 ± 30 nM
- IC50 [3, 12]: 60 nM
- IC50 [4, 13]: 1220 nM
- degradation of HSP90 client proteins (Her-2, Raf, Akt), Western blot [6]: no activity against HSP90 client proteins

SMILES: COc1cc2cc(NC(=O)CCC/C=C/CCCC(=O)Nc3cc4cc(OC)c(OC5CCN(C)CC5)c(C)c4oc3=O)c(=O)oc2c(C)c1OC1CCN(C)CC1 [Compound 33]
- IC50 [1, 10]: 220 ± 50 nM
- IC50 [2, 11]: 310 ± 50 nM
- IC50 [3, 12]: 380 nM
- IC50 [4, 13]: 37700 nM

SMILES: COc1c(OC2CCN(C)CC2)ccc2cc(NC(=O)CCC/C=C/CCCC(=O)Nc3cc4ccc(OC5CCN(C)CC5)c(OC)c4oc3=O)c(=O)oc12 [Compound 34]
- IC50 [1, 10]: 370 ± 50 nM
- IC50 [2, 11]: 880 ± 110 nM
- IC50 [3, 12]: 50 nM
- IC50 [4, 13]: 1210 nM

SMILES: Cc1c(OC2CCN(C)CC2)ccc2cc(NC(=O)CCCC/C=C/CCCCC(=O)Nc3cc4ccc(OC5CCN(C)CC5)c(C)c4oc3=O)c(=O)oc12 [Compound 35]
- IC50 [1, 10]: 510 ± 60 nM
- IC50 [2, 11]: 730 ± 100 nM

SMILES: Cc1c(OCCCN(C)C)ccc2cc(NC(=O)C/C=C/CC(=O)Nc3cc4ccc(OCCCN(C)C)c(C)c4oc3=O)c(=O)oc12 [Compound 36]
- IC50 [1, 10]: 460 ± 20 nM
- IC50 [2, 11]: 840 nM
- IC50 [3, 12]: 15200 nM
- IC50 [4, 13]: 19400 nM
- IC50 [5, 14]: 12200 nM
- degradation of HSP90 client proteins (Her-2, Raf, Akt), Western blot [6]: no activity against HSP90 client proteins

SMILES: Cc1c(OC2CCN(C)CC2)ccc2cc(NC(=O)CC/C=C\CCC(=O)Nc3cc4ccc(OC5CCN(C)CC5)c(C)c4oc3=O)c(=O)oc12 [Compound 38]
- IC50 [1, 10]: > 100000 nM
- IC50 [2, 11]: 49900 ± 2600 nM
- IC50 [3, 12]: 32900 nM
- IC50 [4, 13]: 77600 nM

SMILES: Cc1c(OC2CCN(C)CC2)ccc2cc(NC(=O)CCCCC(=O)Nc3cc4ccc(OC5CCN(C)CC5)c(C)c4oc3=O)c(=O)oc12 [Compound 42]
- IC50 [1, 15]: 1260 ± 200 nM
- IC50 [2, 16]: 2460 ± 400 nM

SMILES: Cc1c(OC2CCN(C)CC2)ccc2cc(NC(=O)CCCCCCC(=O)Nc3cc4ccc(OC5CCN(C)CC5)c(C)c4oc3=O)c(=O)oc12 [Compound 43]
- IC50 [1, 15]: 1190 ± 300 nM
- IC50 [2, 16]: 2820 ± 300 nM
- IC50 [3, 17]: 13800 nM
- IC50 [4, 18]: 30400 nM
- IC50 [5, 19]: 26300 nM

SMILES: Cc1c(OC2CCN(C)CC2)ccc2cc(NC(=O)CCCCCCCCC(=O)Nc3cc4ccc(OC5CCN(C)CC5)c(C)c4oc3=O)c(=O)oc12 [Compound 44]
- IC50 [1, 15]: 2840 ± 100 nM
- IC50 [2, 16]: 3680 ± 400 nM
- IC50 [3, 17]: 10200 nM
- IC50 [4, 18]: 13200 nM
- IC50 [5, 19]: 3900 nM

SMILES: COC1C(O)C(O)C(Oc2ccc3cc(NC(=O)c4cccc(-c5cccc(C(=O)Nc6cc7ccc(OC8OC(C)(C)C(OC)C(O)C8O)c(C)c7oc6=O)c5)c4)c(=O)oc3c2C)OC1(C)C (stereo not drawn) [Compound 65]
- IC50 [1, 20]: 860 ± 140 nM
- IC50 [2, 21]: 1260 ± 170 nM

SMILES: COc1cc(C(=O)Nc2cc3ccc(OC4OC(C)(C)C(OC)C(O)C4O)c(C)c3oc2=O)cc(-c2cc(C(=O)Nc3cc4ccc(OC5OC(C)(C)C(OC)C(O)C5O)c(C)c4oc3=O)ccc2OC)c1 (stereo not drawn) [Compound 67]
- IC50 [1, 20]: 28500 ± 4400 nM
- IC50 [2, 21]: 38000 ± 1500 nM

SMILES: COc1cc(C(=O)Nc2cc3ccc(OC4OC(C)(C)C(OC)C(O)C4O)c(C)c3oc2=O)cc(-c2cc(OC)cc(C(=O)Nc3cc4ccc(OC5OC(C)(C)C(OC)C(O)C5O)c(C)c4oc3=O)c2)c1 (stereo not drawn) [Compound 68]
- IC50 [1, 20]: 1950 ± 400 nM
- IC50 [2, 21]: 1850 ± 520 nM
- IC50 ([3]; Table 4, read-out: Anti-Proliferation Activities of Biaryl Dimers, PC3mm2): 12500 nM
- IC50 ([4]; Table 4, read-out: Anti-Proliferation Activities of Biaryl Dimers, A549): 28900 nM
- IC50 ([5]; Table 4, read-out: Anti-Proliferation Activities of Biaryl Dimers, HT29): 11700 nM

SMILES: COc1ccc(C(=O)Nc2cc3cc(OC)c(OC4OC(C)(C)C(OC)C(O)C4O)c(C)c3oc2=O)cc1-c1cc(C(=O)Nc2cc3cc(OC)c(OC4OC(C)(C)C(OC)C(O)C4O)c(C)c3oc2=O)ccc1OC (stereo not drawn) [Compound 69]
- IC50 [1, 20]: 110 ± 50 nM
- fold more active on SkBr3 cell lines than corresponding 8-Me and 8-OMe coumarin analogs (Compounds 66 and 68) ([1]; versus Compounds 66 and 68): 7-8 fold
- IC50 [2, 21]: 720 ± 210 nM

SMILES: COc1ccc(C(=O)Nc2cc3ccc(OC(C)=O)c(C)c3oc2=O)cc1-c1cc(C(=O)Nc2cc3ccc(OC(C)=O)c(C)c3oc2=O)ccc1OC [Compound 73]
- IC50 ([1]; Table 5, read-out: Anti-Proliferation Activities Non-Noviosylated Biaryl Dimers, SKBr3): 11800 ± 800 nM
- IC50 ([2]; Table 5, read-out: Anti-Proliferation Activities Non-Noviosylated Biaryl Dimers, MCF-7): > 100000 nM
- fold less active than the corresponding noviosylated coumarin-containing analogs (Compounds 65-70) [7]: ~10 fold
